Assay results reported in patent US5994342A, “3-(substituted methyl)-4-oxa-1-azabicyclo[3.2.0]heptan-7-one derivatives useful as antitumor agents” (priority 1994, dated 1999).
In brackets after ≈: the same amount, converted by molar mass. Structures can show the parent of a compound that is named as a salt.

What was measured:
KB cells = test: In vitro KB cell cytotoxicity assay (crystal violet); assay type: cell-based; conditions: Homo sapiens, 72 h, 3 days culture, read-out: KB Cell Cytotoxicity TD50
Procedure: In Vitro KB Cell Cytotoxicity Assay In vitro KB cell cytoxocity assay was done by modification of the crystal violet assay ([…] et al., Anal Biochem., 159, 109-113 (1986). KB cells were cultivated in Eagles minimum essential medium supplemented with 10% calf serum and incubated at 37° C. in a humidified 5% CO2 atmosphere to prepare a cell stock. Cells were counted using a neubauer hemocytometer and seeded in 96 well plates at 100 μl of 3×10^4 cells/ml and cultured for one day. […] Control wells were identical except that test compound was absent. These were cultured for three days. Then the cells were fixed with addition of 20 μl of 25% glutaraldehyde for 15 minutes, washed with water and dried. Then stained with 100 μl of 0.05% crystal violet for 15 minutes, washed with water and dried. The wells are eluted with […] of 0.05M NaH2 PO4 /ethanol (1:1 v/v) and read at OD540 on a multiscan spectrophotometer. Inhibition value of cell growth was calculated based on optical density using the following equation; [formula] TD50 values were calculated from linear regression ines of the log-logit plot.

Sarcoma 180 = test: In vivo antitumor activity against Sarcoma 180; set-up: species or system male ICR mice; conditions: i.p., days 1, 5 and 9
Procedure: In Vivo Antitumor Activity Against Sarcoma 180
The compounds of general formula (I) were tested in vivo against Sarcoma 180 xenografted tumor to mice as illustrated herein after.
Sarcoma 180, 5×10^6 cells were inoculated by S.C. to male ICR mice (6 week old) on day 0. Drugs were administered on days 1, 5 and 9. Mice were killed and tumor weight was measured on day 12 after transplantation. The percentage inhibition of tumor growth was calculated from the mean tumor weight of the treated group compared with that of the control group. Number of mice used in each group was between 6 to 7.

[1] = Mus musculus, Sarcoma-180, ip, 288 h, 12.5 mg/kg/day, tumor s.c., tumor weight day 12, read-out: % Inhibition of tumor growth
[2] = Mus musculus, Sarcoma-180, ip, 288 h, 25 mg/kg/day, tumor s.c., tumor weight day 12, read-out: % Inhibition of tumor growth
[3] = Mus musculus, Sarcoma-180, ip, 288 h, 100 mg/kg/day, tumor s.c., tumor weight day 12, read-out: % Inhibition of tumor growth
[4] = Mus musculus, Sarcoma-180, ip, 288 h, 50 mg/kg/day, tumor s.c., tumor weight day 12, read-out: % Inhibition of tumor growth
[5] = Mus musculus, Sarcoma-180, ip, 288 h, 6.3 mg/kg/day, tumor s.c., tumor weight day 12, read-out: % Inhibition of tumor growth

| SMILES | IC50 (KB cells) | Mortality in 12 days (Sarcoma 180; 12.5 mg/kg/day) | Mortality in 12 days (Sarcoma 180; 25 mg/kg/day) | inhibition in vivo at 12.5 mg/kg (Sarcoma 180; [1]) | inhibition in vivo at 25 mg/kg (Sarcoma 180; [2]) | Mortality in 12 days (Sarcoma 180; 50 mg/kg/day) | inhibition in vivo at 50 mg/kg (Sarcoma 180; [4]) | also measured |
| --- | --- | --- | --- | --- | --- | --- | --- | --- |
| O=C(Cc1cccs1)NC[C@@H]1CN2C(=O)C[C@H]2O1 (racemic) [Example 31, (3RS,5RS)-3-[N-(Thiophen-2-yl)acetylaminomethyl]-4-oxa-1-azabicyclo[3.2.0]heptan-7-one] | 0.098 mg/L (≈ 0.368 µM) |  |  |  |  |  |  | Mortality in 12 days (Sarcoma 180; 40 mg/kg/day): 1/6; inhibition in vivo at 40 mg/kg (Sarcoma 180; Mus musculus, Sarcoma-180, ip, 288 h, 40 mg/kg/day, tumor s.c., tumor weight day 12, read-out: % Inhibition of tumor growth): 35.5% |
| CCN(CC)C(=O)NC[C@@H]1CN2C(=O)C[C@H]2O1 (racemic) [Example 33, (3RS,5RS)-3-[N-(N,N-Diethylcarbamyl)]aminomethyl-4-oxa-1-azabicyclo[3.2.0]heptan-7-one] | 0.246 mg/L (≈ 1.02 µM) |  |  |  |  |  |  | Mortality in 12 days (Sarcoma 180; 22.5 mg/kg/day): 0/6; Mortality in 12 days (Sarcoma 180; 45 mg/kg/day): 0/6; Mortality in 12 days (Sarcoma 180; 90 mg/kg/day): 0/6; inhibition in vivo at 22.5 mg/kg (Sarcoma 180; Mus musculus, Sarcoma-180, ip, 288 h, 22.5 mg/kg/day, tumor s.c., tumor weight day 12, read-out: % Inhibition of tumor growth): 46.6%; inhibition in vivo at 45 mg/kg (Sarcoma 180; Mus musculus, Sarcoma-180, ip, 288 h, 45 mg/kg/day, tumor s.c., tumor weight day 12, read-out: % Inhibition of tumor growth): 66.2%; inhibition in vivo at 90 mg/kg (Sarcoma 180; Mus musculus, Sarcoma-180, ip, 288 h, 90 mg/kg/day, tumor s.c., tumor weight day 12, read-out: % Inhibition of tumor growth): 74.5% |
| O=C(NC[C@@H]1CN2C(=O)C[C@H]2O1)NC[C@@H]1CN2C(=O)C[C@H]2O1 (racemic) [Example 34, N,N'-Di-{[(3RS,5RS)-7-oxo-1-aza-4-oxabicyclo[3.2.0]hept-3-yl]methyl}urea] | 0.151 mg/L (≈ 0.487 µM) | 0/6 | 5/6 | 76.3% | 92.5% |  |  | Mortality in 12 days (Sarcoma 180; 6.25 mg/kg/day): 0/6; inhibition in vivo at 6.25 mg/kg (Sarcoma 180; Mus musculus, Sarcoma-180, ip, 288 h, 6.25 mg/kg/day, tumor s.c., tumor weight day 12, read-out: % Inhibition of tumor growth): 59.8% |
| CS(=O)(=O)NC[C@H]1CN2C(=O)C[C@H]2O1 (racemic) [Example 35, (3RS,5RS)-3-(N-Methanesulfonylaminomethyl)-4-oxa-1-azabicyclo[3.2.0]heptan-7-one] | 0.198 mg/L (≈ 0.899 µM) |  |  |  |  |  |  | Mortality in 12 days (Sarcoma 180; 100 mg/kg/day): 1/6; inhibition in vivo at 100 mg/kg (Sarcoma 180; [3]): 64.6% |
| Cl.NCC(=O)OC[C@H]1CN2C(=O)C[C@@H]2O1 (racemic) [Example 39, (3RS,5SR)-3-(Aminoacetyl)oxymethyl-4-oxa-1-azabicyclo[3.2.0]heptan-7-one hydrochloride] | 0.613 mg/L | 0/6 | 0/6 | 41.9% | 56.7% | 0/6 | 76.7% |  |
| Cl.NCC(=O)NCC(=O)OC[C@H]1CN2C(=O)C[C@@H]2O1 (racemic) [Example 40B, (3RS,5SR)-3-[N-(Aminoacetyl)aminoacetyl]oxymethyl-4-oxa-1-azabicyclo[3.2.0]heptan-7-one hydrochloride] | 0.636 mg/L | 0/6 | 0/6 | 48.3% | 54% | 0/6 | 72% |  |
| CC(=O)NC(COC(C)=O)C(=O)OC[C@H]1CN2C(=O)C[C@@H]2O1 (mixture of isomers) [Example 75B, (3RS,5SR)-3-(2-Acetamido-3-acetoxypropanoyl)oxymethyl-4-oxa-1-azabicyclo[3.2.0]heptan-7-one] | 0.567 mg/L (≈ 1.8 µM) | 0/6 | 0/6 | 37.8% | 65.1% | 4/6 | 77.8% |  |
| COc1ccc(S(=O)(=O)NC[C@H]2CN3C(=O)C[C@@H]3O2)cc1 (relative stereo) [Example 38, (3RS,5RS)-3-N-(4-Methoxybenzenesulfonyl)aminomethyl-4-oxa-1-azabicyclo[3.2.0]heptan-7-one] | 0.158 mg/L (≈ 0.506 µM) |  | 0/6 |  | 26.5% | 0/6 | 55.4% | Mortality in 12 days (Sarcoma 180; 100 mg/kg/day): 1/6; inhibition in vivo at 100 mg/kg (Sarcoma 180; [3]): 72% |
| NCC(=O)NC[C@@H]1CN2C(=O)C[C@H]2O1 (relative stereo) [Example 43, (3RS,5RS)-3-N-(Aminoacetyl)aminomethyl-4-oxa-1-azabicyclo[3.2.0]heptan-7-one hydrochloride] | 0.429 mg/L | 0/6 | 0/6 | 57% | 58.9% | 0/6 | 72.1% | Mortality in 12 days (Sarcoma 180; 6.3 mg/kg/day): 0/6; inhibition in vivo at 6.3 mg/kg (Sarcoma 180; [5]): 48.7% |
| CC(=O)NCC(=O)NC[C@@H]1CN2C(=O)C[C@H]2O1 (relative stereo) [Example 44, (3RS,5RS)-3-N-(N-Acetylaminoacetyl)aminomethyl-4-oxa-1-azabicyclo[3.2.0]heptan-7-one] | 0.341 mg/L (≈ 1.41 µM) | 0/6 | 4/6 | 45.9% | 85.3% |  |  |  |
| CC(=O)NC[C@H]1CN2C(=O)C[C@@H]2O1 [Example 2, (3S,5S)-3-(N-Acetylaminomethyl)-4-oxa-1-azabicyclo[3.2.0]heptan-7-one] | 0.77 mg/L (≈ 4.18 µM) |  |  |  |  |  |  | Mortality in 12 days (Sarcoma 180; 10 mg/kg/day): 0/6; Mortality in 12 days (Sarcoma 180; 20 mg/kg/day): 1/7; inhibition in vivo at 10 mg/kg (Sarcoma 180; Mus musculus, Sarcoma-180, ip, 288 h, 10 mg/kg/day, tumor s.c., tumor weight day 12, read-out: % Inhibition of tumor growth): 44.7%; inhibition in vivo at 20 mg/kg (Sarcoma 180; Mus musculus, Sarcoma-180, ip, 288 h, 20 mg/kg/day, tumor s.c., tumor weight day 12, read-out: % Inhibition of tumor growth): 77.5% |
| N[C@@H](CC(=O)O)C(=O)NCC(=O)NCC1CN2C(=O)CC2O1 (stereo partly drawn) [Example 46B, (3RS,5RS)-3-N-[N-(L-2-Amino-3-carboxypropanoyl)aminoacetyl]aminomethyl-4-oxa-1-azabicyclo[3.2.0]heptan-7-one] | 2.63 mg/L (≈ 8.37 µM) | 0/6 | 0/6 | 44.7% | 55.7% | 1/6 | 76.9% |  |
| CC(C)[C@H](N)C(=O)N[C@@H](C)C(=O)OCC1CN2C(=O)CC2O1 (stereo partly drawn) [Example 49B, (3RS,5SR)-3-[L-2-N-(L-2-Amino-3-methylbutyryl)aminopropanoyl]oxymethyl-4-oxa-1-azabicyclo[3.2.0]heptan-7-one hydrochloride] | 0.537 mg/L |  | 0/6 |  | 55.7% | 0/6 | 71% |  |
| C[C@@H](NC(=O)Cc1cccs1)C(=O)N[C@H](C)C(=O)OCC1CN2C(=O)CC2O1 (stereo partly drawn) [Example 52, (3RS,5SR)-3-{D-2-N-[D-2-N-(Thiophen-2-yl)acetylaminopropanoyl]aminopropanoyl}oxymethyl-4-oxa-1-azabicyclo[3.2.0]heptan-7-one] | 0.197 mg/L (≈ 0.481 µM) |  | 0/6 |  | 45.2% | 0/6 | 63.9% | Mortality in 12 days (Sarcoma 180; 100 mg/kg/day): 2/6; inhibition in vivo at 100 mg/kg (Sarcoma 180; [3]): 70.7% |
| C[C@@H](N)C(=O)NCC1CN2C(=O)CC2O1 (stereo partly drawn) [Example 53B, (3RS,5RS)-3-N-(D-2-Aminopropanoyl)aminomethyl-4-oxa-1-azabicyclo[3.2.0]heptan-7-one hydrochloride] | 0.316 mg/L | 0/6 | 1/6 | 61.9% | 73.8% |  |  | Mortality in 12 days (Sarcoma 180; 6.3 mg/kg/day): 0/6; inhibition in vivo at 6.3 mg/kg (Sarcoma 180; [5]): 47.3% |
| CC(C)[C@H](NC(=O)CN)C(=O)OCC1CN2C(=O)CC2O1 (stereo partly drawn) [Example 55B, (3RS,5SR)-3-[L-2-(N-Aminoacetyl)amino-3-methylbutyryl]oxymethyl-4-oxa-1-azabicyclo[3.2.0]heptan-7-one hydrochloride] | 0.522 mg/L |  | 0/6 |  | 47.6% | 0/6 | 74.4% |  |
